Assay results taken from patent US12264163B2, “Compounds and methods for treating fibrotic pathologies” (Mayo Foundation for Medical Education and Research, priority 2019, dated 2025).
Where a name gives a salt, the structure may show the parent alone.

Assays:
[1] = system: YAP/TAZ; experiment: YAP/TAZ nuclear localization in adult lung fibroblasts, dose response (Cytation 5); assay type: cell-based; conditions: Homo sapiens, Fibroblast, 2 h, adult lung fibroblasts sparsely plated, treated 2 hours; read-out: IC50, inhibition of YAP/TAZ nuclear localization
Procedure: Adult lung fibroblasts (N=2) sparsely plated into 96-well plates. Treated for 2 hours with compounds prior to fixing and immunostaining for YAP/TAZ.
(§1) Immunofluorescence Microscopy: Cells were plated into 96 well plates (Corning 3603) in their specific growth media and allowed to attach (8 hours). Media was then exchanged for the indicated conditions for each experiment. Cells were fixed in 3.7% formalin (Sigma-Aldrich), permeabilized in 0.25% Triton X-100 (Sigma-Aldrich) and then blocked with 1% BSA for 1 h. Cells or tissue sections were incubated overnight with mouse monoclonal antibody against αSMA (Sigma-Aldrich F3777), and/or a rabbit monoclonal antibody against YAP/TAZ (Cell Signaling D24E4) diluted 1:200 in PBS with 1% BSA. Cells were then washed and exposed to flourescence-conjugated secondary antibodies (Invitrogen) diluted 1:1000 and DAPI (Thermo Fisher Scientific). Images were taken with a Cytation5 (BioTek) microscope. For scoring αSMA positive cells (FIG. 12), an observer blinded to the treatment conditions counted αSMA-positive cells using a visual threshold for bright fibrous staining; a minimum of 200 cells was counted for each condition. YAP/TAZ localization was quantified (FIGS. 6-10, 24-26, and 29-30) using Gen5 (Biotek) software. Images were taken at 4× magnification of both DAPI and YAP/TAZ staining. […] Quantification of double positive (YAP/TAZ and αSMA) cells from lung tissue sections (FIG. 17-21) was performed similarly; however separate thresholds were established for both YAP/TAZ and αSMA. A minimum of 4000 cells was quantified for each mouse.

[2] = system: CTGF, COL1A1, ACTA2, FN1; experiment: Profibrotic / matrix remodeling gene expression by qPCR in fibroblasts; assay type: cell-based, human; conditions: IMR-90 lung fibroblasts; for profibrotic gene expression: 24 hours
Procedure: Genes which encode Connective tissue growth factor (CTGF), Collagen I (COL1A1), αSMA (ACTA2), and Fibronectin (FN1) are reduced by 24 hour treatment with DHX (10 μM), +/−SCH 39166 (3 μM). N=3 (****p<0.0001, ***p<0.001, *p<0.05 vs. 0.1% DMSO vehicle control)
IPF patient-derived fibroblasts cultured in media containing 0.1% FBS were stimulated for 24 hours with 2 ng/mL TGFβ and 10 μM DHX prior to RNA isolation. Genes which encode for ECM crosslinking: transglutaminase 2 (TGM2), lysyl oxidase and lysyl oxidase-like enzymes (LOX and LOXL1-4), ECM degradation: uPA (PLAU), tPa (PLAT), cathepsin K (CTSK), and matrix metalloprotease-14 (MMP14) and ECM protease inhibitors: metalloprotease inhibitor 3 (TIMP3), and plasminogen activator inhibitor 1 (SERPINE1) were measured. N=3. (****p<0.0001, ***p<0.001, **p<0.01, *p<0.05 vs. 0.1% DMSO vehicle control non-TGFβ treated), (++++p<0.0001, ++p<0.01, +p<0.05 vs. 0.10% DMSO vehicle control TGFβ treated).
For all other in vitro experiments, cells were treated as indicated prior to RNA isolation using RNeasy Plus Mini Kit (Qiagen) according to manufacturer's instructions. Isolated RNA (250 ng) was then used to synthesize cDNA using SuperScript VILO (Invitrogen). Quantitative PCR was performed using FastStart Essential DNA Green Master (Roche) and analyzed using a LightCycler 96 (Roche). Data are expressed as a fold change by ΔΔCt relative to GAPDH. For in vivo experiments, tissue was immediately frozen, and stored at −80° C. RNA isolation, cDNA synthesis, and qPCR analysis were performed as above.

[3] = system: YAP/TAZ; experiment: YAP/TAZ nuclear localization in IPF patient-derived lung fibroblasts treated with dopaminergic agonists; assay type: cell-based, human; conditions: for Nuclear localization (% of total cells): 10 μM, 2 hours
Procedure: IPF patient-derived lung fibroblasts cells treated 2 hours prior to fixation with diverse dopaminergic agonists (10 μM). N=4 different patient samples. % nuclear localization of YAP/TAZ was determined using automated imaging software. Scale bar represents 100 μm.
as §1, with “Media” for “Immunofluorescence Microscopy: Cells were plated into 96 well plates (Corning 3603) in their specific growth media and allowed to attach (8 hours). Media”, “Cells were fixed in 3.7% formalin (Sigma-Aldrich), permeabilized in 0.25% Triton X-100 (Sigma-Aldrich) and then blocked with 1% BSA for 1 h.” left out

[4] = system: IPF patient derived fibroblasts; experiment: Traction force microscopy of IPF patient-derived fibroblasts; assay type: cell-based, human; conditions: IPF fibroblasts on 6.4 kPa matrices
Procedure: Traction Force Microscopy: Traction analysis was conducted as previously described. […] IPF patient derived fibroblasts were plated on the gels overnight and treated as indicated before traction force measurements. Images of gel surface-conjugated fluorescent beads were acquired for each cell before and after trypsinization using a Nikon ECLIPSE Ti microscope at ×10 magnification. Traction forces were estimated by measuring bead displacement fields and computing corresponding traction fields using TractionsForAll (freely distributed program that calculates 2-D tractions exerted by an adherent cell on its substrate).

[5] = system: αSMA; experiment: TGFβ-induced αSMA+ stress fiber formation in fibroblasts; assay type: cell-based, human; conditions: IPF-patient derived fibroblasts, TGFβ 48 hours, then dopamine 1 μM + TGFβ 24 hours
Procedure: as §1, with “Media” for “Immunofluorescence Microscopy: Cells were plated into 96 well plates (Corning 3603) in their specific growth media and allowed to attach (8 hours). Media”

[6] = system: YAP/TAZ; experiment: YAP/TAZ nuclear localization in IMR-90 and other fibroblasts / mesenchymal cells (immunofluorescence); assay type: cell-based, human; conditions: IMR-90 lung fibroblasts
Procedure: Selective agonists of dopamine receptor D1 with varying efficacy inhibit YAP/TAZ nuclear localization; this effect can be overcome by treatment with a DRD1 receptor antagonist (SCH 39166, 3 μM), (Dihydrexidine, 10 μM). IMR-90 cells treated 2 hours prior to fixation. N=4 (****p<0.0001 vs. 0.10% DMSO vehicle control). Scale bar represents 100 μm.
In each case DHX treatment (10 μM) can reverse this effect on YAP/TAZ. IMR-90 cells plated densely onto plastic cell culture plates for 24 hours in media containing 0.1% FBS, treated for 2 hours prior to fixation. N=4 (****p<0.0001 vs. 0.1% DMSO vehicle control), (++++p<0.0001 vs. the respective stimulated agonist ET-1, LPA, or 5-HT). Scale bar represents 100 μm.
Mesenchymal cells derived from lung (IMR-90 and IPF-FBs) hepatic stellate cells (HSC), human adult cardiac fibroblasts, (HACF) and human dermal fibroblasts (HDF) were plated densely (Confluent) or sparsely (Control and all remaining conditions) onto plastic cell culture plates for 24 hours in media containing 0.10% FBS, treated for 2 hours with Rho kinase inhibitor Y27632, adenylate cyclase activator forskolin and DHX. N=4, Cells that were positive for nuclear YAP/TAZ were quantified by automated image analysis.
as §1

[7] = system: cAMP; experiment: cAMP assay (cAMP-Glo) in fibroblasts; assay type: cell-based, human; conditions: IMR-90 lung fibroblasts
Procedure: FIG. 9 contains a bar graph showing cAMP measured in IPF patient-derived fibroblasts treated for 20 minutes with DHX (10 μM)+/−SCH 39166 (3 μM). N=3 (**p<0.01 vs. 0.1% DMSO vehicle control).
N=3, IMR-90 lung fibroblasts.
cAMPAssay: IPF patient derived fibroblasts were plated in EMEM containing 10% FBS overnight. […] 20 minutes prior to cell lysis media was removed and cells were treated with “induction buffer” containing nonselective phosphodiesterase inhibitors and the indicated concentration of compound(s). Luminescence was measured on a Flexstation 3 (Molecular Devices) plate reader.

SMILES	IC50 [1] [nM]	profibrotic gene expression [2]	effect of D1 antagonist on DHX's inhibition of YAP/TAZ nuclear localization [6]	effect of D1 antagonist on DHX's elevation of cAMP [7]	effect of D1 antagonist on DHX's inhibition of YAP/TAZ target genes [2]	other results
NCC1OC(C2CCCOC2)Cc2c1ccc(O)c2O (centres unmarked) [CTC-1]	285	inhibition of profibrotic gene expression	–	–	–	–
CC(C)(CO)C1Cc2c(ccc(O)c2O)C(CN)O1 (centres unmarked) [CTC-2]	490	inhibition of profibrotic gene expression	–	–	–	–
NCCc1ccc(O)c(O)c1 [Dopamine•HCl, Dopamine]	–	–	–	–	–	Nuclear localization (% of total cells) ([3]; IPF-1 patient fibroblasts): 39.85 % of total cells; Nuclear localization (% of total cells) ([3]; IPF-2 patient fibroblasts): 59.29 % of total cells; Nuclear localization (% of total cells) ([3]; IPF-3 patient fibroblasts): 49.67 % of total cells; Nuclear localization (% of total cells) ([3]; IPF-4 patient fibroblasts): 49.51 % of total cells; YAP/TAZ nuclear localization ([3]; low density IPF-patient derived fibroblasts on tissue culture plastic): inhibits YAP/TAZ nuclear localization; contractile forces (traction force microscopy) [4]: attenuates IPF fibroblast contractility; αSMA+ stress fiber formation [5]: reverses αSMA+ stress fiber formation
CN1CCc2ccccc2Cc2[nH]c3ccccc3c2CC1 [LE-300]	–	–	block DHX's inhibition of YAP/TAZ nuclear localization	block DHX's elevation of cAMP	block DHX's inhibition of YAP/TAZ target genes	–
CN1CCc2cc(Cl)c(O)cc2[C@H]2c3ccccc3CC[C@@H]21 [SCH-39166]	–	–	block DHX's inhibition of YAP/TAZ nuclear localization	block DHX's elevation of cAMP	block DHX's inhibition of YAP/TAZ target genes	–
